PMC10652723 (ACS Omega, 2023)
Entries after “also recorded” stand apart in the source; their conditions may differ.

Tests used:
[1] = test system: SARS-CoV-2; type: cell-based; details: for anti-SARS-CoV-2 activity (library screening): tetrazolium dye method, result in words
[2] = test system: neural stem cells; details: result in words; cited from earlier work
[3] = biological target: SARS-CoV-2 RNA polymerase (RdRp) (Severe acute respiratory syndrome coronavirus 2, UniProt P0DTD1); experiment: RdRp inhibition assay; type: biochemical; details: Figure 4; result in words
[4] = test system: 3-chymotrypsin-like (3CL) protease of SARS-CoV-2; details: result in words; cited from earlier work
[5] = test system: VeroE6/TMPRSS2 cells; details: at a concentration of 100 μM; result in words

Structure (SMILES) | Microscopic observation of cell survival [1] | anti-SARS-CoV-2 activity (library screening) [1] | neuronal differentiation activity [2] | Inhibitory effect on SARS-CoV-2 RdRp activity [3] | inhibition of 3CL protease of SARS-CoV-2 [4] | toxicity [5]
CC1=C(C/C=C(\C)CC/C=C(\C)Cc2cccc(C)c2)C(=O)c2ccccc2C1=O [Compound 1] | survived as well as control A | anti-SARS-CoV-2 activity was observed | higher neuronal differentiation activity than natural vitamin K homologues; also recorded: induce neural stem cells to differentiate into neurons | inhibited RdRp in a concentration-dependent manner |  | 
CC1=CC(=O)c2ccccc2C1=O [vitamin K3, menadione] |  |  |  |  | inhibit | 
CC1=C(C/C=C(\C)CC/C=C(\C)Cn2cnc3c(Cl)ncnc32)C(=O)c2ccccc2C1=O [Compound 16, 2-((2E,6E)-8-(6-Chloro-9H-purin-9-yl)-3,7-dimethylocta-2,6-dien-1-yl)-3-methylnaphthalene-1,4-dione] |  |  |  | inhibited RdRp in a concentration-dependent manner |  | no toxicity
CC1=C(C/C=C(\C)CC/C=C(\C)Cc2cccc3ccccc23)C(=O)c2ccccc2C1=O [Compound 2] |  | anti-SARS-CoV-2 activity was observed | induce neural stem cells to differentiate into neurons | inhibited RdRp in a concentration-dependent manner |  | 
